Where a name gives a salt, the structure may show the parent alone.
melting point | SMILES
194 to 196 °C | CC(C)(C)c1ccc(C(=O)Nc2ccccc2C(=O)Nc2cccc(C(=N)N)c2)cc1.Cl
196 to 198 °C | CC(C)(C)c1ccc(C(=O)Nc2ccccc2NC(=O)c2cccc(C(=N)N)c2)cc1.Cl
227 to 229 °C | CC(C)c1ccc(C(=O)Nc2ccccc2NC(=O)c2cccc(C(=N)N)c2)cc1.Cl
163 to 167 °C | COc1ccc(NC(=O)c2ccccc2NC(=O)c2cccc(C(=N)N)c2)cc1 (as salt: salt) [Example 12, 2-[3-(amino(imino)methyl)benzoylamino]-N-(4-methoxyphenyl)benzamide]
163 to 165 °C | CCOc1ccc(C(=O)Nc2ccccc2NC(=O)c2cccc(C(=N)N)c2)cc1 [Example 38, N^1-[3-(amino(imino)methyl)benzoyl]-N^2-(4-ethoxybenzoyl)-1,2-benzenediamine]

From US6677369B2, “Antithrombotic agents” (Eli Lilly and Company, priority 1997, dated 2004)
